Test results published in patent US9402821B2, “Methods and pharmaceutical compositions for treatment of cystic fibrosis” (INSERM (Institut National de la sante et de la Recherche …, priority 2012, dated 2016).
“Also recorded” adds a separate entry of the source.

How the values were obtained:
CFTR = CFTR (Homo sapiens, UniProt P13569); assay: CFTR maturation by Western blot of membrane extracts; type: cell-based; design: expressed in transfected cells; conditions: for Ratio CFTR C/C + B (%): HeLa CFTR WT, Ctr. 65.1
Chain of CFTR (P13569 whole entry): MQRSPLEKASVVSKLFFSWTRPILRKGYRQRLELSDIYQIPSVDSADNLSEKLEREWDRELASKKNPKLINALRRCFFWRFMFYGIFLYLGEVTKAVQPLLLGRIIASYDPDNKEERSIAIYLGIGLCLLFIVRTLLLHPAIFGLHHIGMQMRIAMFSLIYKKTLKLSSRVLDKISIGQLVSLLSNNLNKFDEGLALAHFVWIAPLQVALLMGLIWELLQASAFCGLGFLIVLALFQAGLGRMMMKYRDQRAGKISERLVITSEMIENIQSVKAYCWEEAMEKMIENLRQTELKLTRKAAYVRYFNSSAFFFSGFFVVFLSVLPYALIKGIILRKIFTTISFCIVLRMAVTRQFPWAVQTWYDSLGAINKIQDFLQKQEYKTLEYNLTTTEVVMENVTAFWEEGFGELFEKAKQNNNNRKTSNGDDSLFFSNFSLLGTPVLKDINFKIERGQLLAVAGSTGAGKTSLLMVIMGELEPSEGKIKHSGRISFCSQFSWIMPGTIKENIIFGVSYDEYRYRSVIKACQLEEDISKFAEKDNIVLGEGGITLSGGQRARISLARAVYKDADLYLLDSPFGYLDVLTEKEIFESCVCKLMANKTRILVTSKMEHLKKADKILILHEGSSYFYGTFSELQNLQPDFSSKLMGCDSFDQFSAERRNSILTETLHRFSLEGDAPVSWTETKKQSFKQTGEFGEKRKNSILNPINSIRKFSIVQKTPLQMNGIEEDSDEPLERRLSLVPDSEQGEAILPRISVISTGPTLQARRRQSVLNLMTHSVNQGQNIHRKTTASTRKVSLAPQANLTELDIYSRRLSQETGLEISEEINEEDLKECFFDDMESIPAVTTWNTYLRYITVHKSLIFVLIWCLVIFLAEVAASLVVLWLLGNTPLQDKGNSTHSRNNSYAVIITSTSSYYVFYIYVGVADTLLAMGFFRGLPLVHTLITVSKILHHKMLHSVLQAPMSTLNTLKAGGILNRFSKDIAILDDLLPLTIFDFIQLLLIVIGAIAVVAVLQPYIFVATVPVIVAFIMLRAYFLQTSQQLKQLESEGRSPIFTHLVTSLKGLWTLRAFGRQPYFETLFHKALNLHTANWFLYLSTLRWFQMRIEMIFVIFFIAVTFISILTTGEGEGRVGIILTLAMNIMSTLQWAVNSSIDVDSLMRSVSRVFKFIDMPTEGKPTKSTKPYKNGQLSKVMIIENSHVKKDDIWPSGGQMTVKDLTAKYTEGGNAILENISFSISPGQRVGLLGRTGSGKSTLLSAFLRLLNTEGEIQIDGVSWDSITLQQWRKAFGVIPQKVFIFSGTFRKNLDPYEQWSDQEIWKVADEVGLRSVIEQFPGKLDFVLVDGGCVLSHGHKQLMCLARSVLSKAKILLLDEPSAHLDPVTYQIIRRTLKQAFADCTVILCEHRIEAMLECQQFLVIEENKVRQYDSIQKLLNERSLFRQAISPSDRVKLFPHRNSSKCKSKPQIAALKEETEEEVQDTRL
Procedure: B. Chloride activity in HeLa Wt cells was measured by MQAE assay, after 3 h of treatment by NSAID (500 μM) or diluent. CFTR activity was expressed in rate of UFA/sec, calculated by difference between ((Ft−F0)/t) with CFTR induction and ((Ft−F0)/t) without CFTR induction. […] C. Primary culture of human nasal epithelial cell (HNEC) grown on Snapwell filters (air-liquid interface) were exposed basolaterally to sulindac (500 μM) or vehicle for 2 h and immediately mounted into a voltage-clamp system to bioelectric measurements. Short circuit current was measured with addition of amiloride to evaluated amiloride sensitive transport or with forskolin and IBMX for induced cAMP-dependent Cl secretion.
To study the CFTR protein present at the cell membrane, a protocol of purification by differential centrifugations was used. CFTR wt and delta F508 HeLa cells (2×10^5 cells/cm^2) were lysed with hypotonic lysis buffer (10 mM de KCl, 1 mM de MgCl2, 10 mM Hepes pH 7, 4 and protease inhibitor). Mechanic lysis of cells was realized with minimum 10 strokes of a 26G syringe. Samples were centrifuged 10 min at 3000 g to eliminate cellular fragments and nuclear fraction in the pellet. Then supernatant was centrifuged 45 min at 50 000 g. The pellets with cellular membrane were resolubilized in RIPA buffer.
Aliquots of membrane cell extracts (30 μg protein) were separated by 7% SDS-PAGE and transferred on PVDF membrane. The western blots were probed with mouse monoclonal antibodies specific for CFTR (MM13-4, Millipore) 2 h at room temperature.

IκB = assay: Western blot of cytosolic IκB after TNFα; type: cell-based; conditions: HeLa control cells; 500 μM 1 h pre-treatment; TNFα 10 ng/ml 30 min
Procedure: HeLa control cells were pre-treated with diluent (0.5%) or sulindac (500 μM) for 1 h and stimulated or not with 10 ng/ml TNFα for 30 min. Nuclear and cytosolic fractions were obtained by differential centrifugation. A. Analysis by western blot of cytosolic IKb quantity. The Iκb quantity was expressed in percent of control. […] B. Analysis by western blot of nuclear p65 quantity. Nuclear p65 quantity was expressed in percent of diluents+TNFα.
Nuclear and cytosolic fraction was obtained by differential centrifugation. Briefly, cells were lyses in buffer C (10 mM Hepes, 60 mM KCl, 1 mM EDTA, 7.8% NP40, 100 mM DTT, pH 7.6). After centrifugation, nucleus pellet were lyses in buffer N (27 mM Tris, 566 mM NaCl, 2 mM MgCl2, 1.3 mM EDTA, pH 8). Aliquots of fraction (30 μg protein) were separated by SDS-PAGE and transferred on PVDF membrane. The western blots were probed with mouse monoclonal antibodies specific for IκB or p65 (Santa-Cruz) 2 h at room temperature.

C57BL/6J mice = assay: LPS-induced lung inflammation mouse model, chemokines in BAL fluid by ELISA; type: in vivo; conditions: sulindac 40 mg/kg i.p. 1 h before intratracheal LPS 5 mg/kg
Procedure: A. Protocol for lung inflammation mouse models. Lung inflammation was induced by two intra tracheal instillation of LPS (5 mg/kg), 24 h and 6 h prior sacrifice. Sulindac (40 mg/kg) or diluents were administered by intraperitoneal injection 1 h before LPS instillation. B. Mouse macrophage inflammatory protein (MIP-2) was monitored in BAL fluid by ELISA assay. LPS-stimulated MIP-2 production was inhibited by sulindac.
Male C57BL/6J mice (8-10 wk old) were treated by intraperitoneal (IP) injection of sulindac (40 mg/kg) or vehicle one hour before the time of endotoxin administration which caused lung injury. Lung inflammation was induced by LPS from E. coli (Sigma) prepared in saline and administered by injection intra-tracheal. In order to track at a single time point after LPS challenge both the early humoral and the late cell infiltrating components of the inflammatory response, a volume of 50 μl LPS solution (5 mg/kg) was administered at two consecutive doses with a 18 h interval between doses. This challenge method enables to track both cytokine and cellular responses to induction of inflammation. […] The chemokines keratinocyte chemoattractant (KC) and mouse macrophage inflammatory protein (MIP-2) were monitored in BAL fluid following the corresponding manufacturers' protocols using a standard sandwich enzyme-linked immune absorbent assay (ELISA, R&D Systems).

For `CC1=C(CC(=O)O)c2cc(F)ccc2/C1=C\c1ccc([S+](C)[O-])cc1` (stereo not drawn) [sulindac, (Z)-5-fluoro-2-methyl-1-[p-(methylsulfinyl)benzylidene]-indene-3-acetic acid], the “Ratio CFTR C/C + B (%)” value (CFTR; 250 μM) was 77.7%, the “Ratio CFTR C/C + B (%)” value (CFTR; 500 μM) was 81.5% and the “mature form of CFTR (Western blot)” value (CFTR; WT-CFTR HeLa cells, 500 μM) was “significant increase of mature form of CFTR”. The “degradation of cytosolic IκB induced by TNFα” value (IκB) was “did not modified this effect; also recorded: did not affect the degradation of IκB”, the “KC (keratinocyte-derived chemokine) in BAL fluid” value (C57BL/6J mice) was “decreased the secretion of KC and MIP-2” and the “MIP-2 in BAL fluid” value (C57BL/6J mice) was “inhibited; also recorded: decreased the secretion of KC and MIP-2”.
